This is an account of results in patent US11939362B2, “Light-inducible protein aggregation system for modeling proteinopathies and neurodegenerative disorders” (UNIVERSITÉ LAVAL, priority 2018, dated 2024).

One assay relates to LIPA-α-syn aggregates. The experiment in a line: Stability of LIPA-α-syn inclusions after light stimulation (proportion of mCherry-positive cells with inclusions). The format is cell-based, human. To be noted: for reduction in the number of cells exhibiting stable LIPA-α-syn inclusions / effect on the proportion of cells with mCherry inclusions: HEK-293T cells overexpressing LIPA-α-syn; for reduction in the number of cells exhibiting stable LIPA-α-syn inclusions: 12 h pre-exposure to blue light, treatment with small molecule inhibitor, FIG. 16, n=5; for effect on the proportion of cells with mCherry inclusions: treatment with inactive small molecules, FIG. 18, n=5. The protocol:
HEK-293T cells were seeded on 0.1% gelatin-coated glass coverslips in 24-well plates at a density of 10^4 cells per well (50% confluence) and transiently transfected, 24 h later, with 0.5 μg of LIPA-Empty, 0.6 μg LIPA-α-syn, and 1 μg LIPA-α-syn^ΔNAC per 4 wells, to obtain similar protein expression levels in all conditions. 24 h post-transfection, cells were exposed to blue light (λ=456 nm) using UHP-T-DI-LED series Ultra High-Power LEDs (Prizmatix), at an intensity of 0.8 mW/cm^2, as measured using LPM-100 light power meter (Amuza). Cells were collected at different time points and fixed in 4% paraformaldehyde for 15 min at room temperature (RT), then washed three times (5 min) with PBS and permeabilized with PBS containing 0.25% Triton X-100, for 30 min at RT. Cells were incubated in blocking buffer solution (PBS containing 5% BSA and 0.1% Triton X-100), for 1 h at RT. Coverslips were incubated with primary antibodies (see Table 1) diluted in blocking buffer solution for 2 h at RT. Coverslips were washed three times in blocking buffer solution (10 min) and appropriate Alexa Fluor® secondary antibodies (Life Technologies, see Table 1) were applied for 1 h at RT. Coverslips were washed twice with PBS (10 min) and counterstained with the fluorescent nuclear stain […] 4,6-diamidino-2-phenylindole (DAPI) (1:5000) for 5 min. Coverslips were then washed twice with PBS (10 min), mounted on Prolong® Gold Antifade (Molecular Probes), and imaged using a Zeiss LSM800 confocal microscope. For thioflavin S (ThS) staining, fixed and permeabilized cells were incubated with 0.05% ThS for 15 min, washed three times with 70% ethanol for 10 min, and then cells were directly counterstained with DAPI. All immunocytochemistry experiments were made with gentle rocking and protected from light.
(§1) To evaluate the number of mCherry-positive cells with aggregates, a total of 8-10 images per condition were collected using a fluorescence microscope (Nikon Eclipse 80i; 20× objective) and a total of 220-250 cells were quantified by two experimenters, in a blind manner, using ImageJ.
The stability of LIPA-α-syn inclusions in the absence of light stimulation was evaluated by assessing the proportion of mCherry-positive cells having inclusions. LIPA aggregates were allowed to form over a 12 h period under light stimulation and cells were collected at different time points up to 48 h post-illumination (FIG. 14).
The impact of treatment with potent small molecule inhibitors of α-syn aggregation, namely baicalein and myrecitin (Masuda et al., 2006; Zhu et al., 2004), on the stability of LIPA-α-syn inclusions was next evaluated. […] Treatment with baicalein or myrecitin had no effect on LIPA-Empty dissociation, confirming the specificity of these inhibitors (FIG. 17).
Previous studies have reported that both β-synuclein (β-syn) and mouse α-syn (ma-syn) overexpression inhibit human α-syn aggregation in cell culture and animal models. To test the impact of these two proteins on LIPA-α-syn inclusion formation, LIPA-α-syn was overexpressed with β-syn or ma-syn in HEK-293T cells, then transiently exposed to blue light for 12 h.

For a further assay, the target named is T1, LIPA-Empty aggregates (Arabidopsis thaliana, UniProt Q96524, E490G).
T1 construct: expressed in transfected cells; host or cells: HEK-293T
T1 sequence (Q96524 1-498 E490G): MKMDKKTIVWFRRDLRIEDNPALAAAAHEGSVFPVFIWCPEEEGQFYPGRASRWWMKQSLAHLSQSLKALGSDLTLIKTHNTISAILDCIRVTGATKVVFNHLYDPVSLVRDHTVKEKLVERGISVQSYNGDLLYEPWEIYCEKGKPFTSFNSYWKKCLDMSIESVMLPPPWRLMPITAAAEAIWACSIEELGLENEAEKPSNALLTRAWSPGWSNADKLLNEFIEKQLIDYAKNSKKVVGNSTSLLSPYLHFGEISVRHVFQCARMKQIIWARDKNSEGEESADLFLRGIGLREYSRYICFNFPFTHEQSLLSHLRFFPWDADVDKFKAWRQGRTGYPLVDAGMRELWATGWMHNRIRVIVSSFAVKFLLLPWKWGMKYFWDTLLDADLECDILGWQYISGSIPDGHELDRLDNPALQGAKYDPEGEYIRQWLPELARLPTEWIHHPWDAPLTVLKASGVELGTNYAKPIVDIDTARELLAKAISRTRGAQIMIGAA
In words: Stability/dissociation of LIPA-Empty inclusions after light stimulation (proportion of mCherry-positive cells with inclusions). The format is cell-based, human. To be noted: HEK-293T cells overexpressing LIPA-Empty, 12 h pre-exposure to blue light, FIG. 17, n=5. The protocol:
HEK-293T cells were seeded on 0.1% gelatin-coated glass coverslips in 24-well plates at a density of 10^4 cells per well (50% confluence) and transiently transfected, 24 h later, with 0.5 μg of LIPA-Empty, 0.6 μg LIPA-α-syn, and 1 μg LIPA-α-syn^ΔNAC per 4 wells, to obtain similar protein expression levels in all conditions. 24 h post-transfection, cells were exposed to blue light (λ=456 nm) using UHP-T-DI-LED series Ultra High-Power LEDs (Prizmatix), at an intensity of 0.8 mW/cm^2, as measured using LPM-100 light power meter (Amuza). […]
as §1
The stability of LIPA-α-syn inclusions in the absence of light stimulation was evaluated by assessing the proportion of mCherry-positive cells having inclusions. […]
The impact of treatment with potent small molecule inhibitors of α-syn aggregation, namely baicalein and myrecitin (Masuda et al., 2006; Zhu et al., 2004), on the stability of LIPA-α-syn inclusions was next evaluated. […]

As to `O=c1cc(-c2ccccc2)oc2cc(O)c(O)c(O)c12` [baicalein], the “reduction in the number of cells exhibiting stable LIPA-α-syn inclusions” value in the assay with LIPA-α-syn aggregates stood at 50%. At LIPA-Empty aggregates, the “effect on LIPA-Empty dissociation” value is recorded as “no effect”.

With `O=c1c(-c2ccc(O)cc2)coc2cc(O)ccc12` [daidzein], in the assay on LIPA-α-syn aggregates, the “effect on the proportion of cells with mCherry inclusions” value is recorded as “did not affect”.

On to `O=c1c(O)c(-c2cc(O)c(O)c(O)c2)oc2cc(O)cc(O)c12` [myrecitin], for which, in the assay on LIPA-α-syn aggregates, the “reduction in the number of cells exhibiting stable LIPA-α-syn inclusions” value is 50%. Besides, the “effect on LIPA-Empty dissociation” value on LIPA-Empty aggregates was “no effect”.

In the case of `O=C1C[C@@H](c2ccc(O)cc2)Oc2cc(O)cc(O)c21` [naringenin], the “effect on the proportion of cells with mCherry inclusions” value in the assay with LIPA-α-syn aggregates is recorded as “did not affect”.

Consider “β-syn: β-synuclein overexpressed in cells; reported to inhibit human α-syn aggregation”, for which the “reduction of the proportion of cells exhibiting mCherry aggregates (LIPA-α-syn inclusions)” value in the assay on LIPA-α-syn aggregates (co-overexpression with LIPA-α-syn in HEK-293T cells, blue light 12 h, post-stimulation analysis, FIG. 19 and 21, n=5) is reported as “significant reduction”.
